3 compounds from patent publication EP4755885A1 (Shanghai Hansoh Biomedical Co., Ltd., priority 2023, dated 2025) can be followed below.

Data set [1] has as its target T1, human GLP-1 receptor (Homo sapiens, UniProt P43220).
T1 construct: expressed in transfected cells
The experiment in a line: cAMP production in cell line stably transformed with human GLP1 receptor, 2 h co-incubation (HTRF). It is filed as cell-based. Conditions: CHO-K1/GLP-1R/CRE-luc cells, stimulation for 2 h, read-out: EC50. The method, then:
(§1) The purpose of this assay example is to test the ability of the compound to activate the human GLP-1 receptor on cell surface. The EC50 for stimulated cAMP production after activation characterizes the ability of the compound to activate the human GLP-1 receptor.
In this experiment, the compound and cells were co-incubated for 2 h.
(§2) Frozen cell line CHO-K1/GLP-1R/CRE-luc stably transformed with human GLP1 receptor was removed from a liquid nitrogen tank, and was placed in a 37°C water bath for rapid thawing. The cells were resuspended in DMEM/F12 medium, and after centrifugation, were washed once. The cells were resuspended in an experimental buffer, i.e., DMEM/F12 medium containing 0.1% casein. After centrifugation, cell density was adjusted using the experimental buffer. The cells were plated onto a 384-well plate at a density of 1500 cells/5 µL/well. Then, each well was added with 2.5 µL of IBMX working solution prepared with the buffer, the final concentration of IBMX being 0.5 mM, and 2.5 µL of a serially diluted compound sample (starting from […], 3-fold dilution, 12 concentrations). The plate was centrifuged at 1000 rpm for 1 min, and was stood for incubation at 37°C for 2 h. Determination was performed using the Cisbio cAMP - Gs Dynamic kit. cAMP-d2 and anti-cAMP-Eu3+-Cryptate were diluted 18-fold and 20-fold respectively with cAMP Lysis & Detection Buffer, and were respectively mixed homogeneously. Each well was added with 5 µL of diluted cAMP-d2 solution, and the plate was centrifuged at 1000 rpm for 1 min, and shaken for 30 seconds for homogeneous mixing. Then, each well was added with 5 µL of diluted anti-cAMP-Eu3+-Cryptate solution, and the plate was centrifuged at 1000 rpm for 1 min and was incubated in the dark at room temperature for 1 h. HTRF signals were read using the Biotek Synergy H1 microplate reader, the excitation wavelength being 320 nm and the emission wavelengths being 620 nm and 665 nm.
(§3) The signal-to-signal ratio was calculated (665 nm/620 nm * 10,000). Nonlinear fitting between the signal-to-signal ratio and the sample concentration was performed in GraphPad Prism 10 using a four-parameter equation to obtain the EC50 value.

Data set [2] concerns the target T1, human GLP-1 receptor. The data set is described as follows: cAMP production in cell line stably transformed with human GLP1 receptor, 30 min co-incubation (HTRF). It is filed as cell-based. The conditions noted are these: CHO-K1/GLP-1R/CRE-luc cells, stimulation for 0.5 h, read-out: EC50. How it is done: as §1
In this experiment, the compound and cells were co-incubated for 30 min.
as §2, with “for 0.5” for “for 2”
as §3
(cAMP levels reflect the balance of adenylyl cyclase and phosphodiesterase activity.)

Data set [3] is described as follows: Pharmacokinetic evaluation in beagles, oral administration. It is filed as in vivo. Conditions: dog, po, p.o. 2 mg/kg, plasma; for Cmax: read-out: Cmax; for MRT inf: read-out: MRT 0-∞; for Tmax: read-out: tmax. How it is done:
Beagles were used as test animals to study the pharmacokinetic behavior of the compound of the present invention, administered orally at a dose of 2 mg/kg, in beagles (plasma).
Beagles, 3 per group, male.
Preparation of drug for oral administration: 10%PEG400/10%PG/80% glycine buffer (100 mM glycine, 64 Mm NaOH, […]) buffer.
Single PK: The compound of the present invention was weighed into a 100 mL glass bottle, and the solution was added. The pH was first adjusted with 1 M NaOH until the compound dissolves to obtain a clear solution, and then the pH was readjusted to pH 9.0-9.5 with 1 M HCl. Sonication was performed for 10 min to obtain a colorless clear solution having a concentration of 0.4 mg/mL.
Three beagles, male, respectively administered p.o. after fasting overnight, at a dose of 2 mg/kg and in an administration volume of 5 mL/kg.
Blood collection: 0.3 mL of blood was collected from the forelimb vein of the beagles before administration and at 0.25, 0.5, 1, 2, 4, 6, 8, and 24 h after administration. The blood samples were placed in EDTA-K2 anticoagulant tubes and centrifuged at 6000 rpm at 4°C for 6 min to separate plasma, which was stored at -80°C. The beagles were fed 4 h after administration.
• 1) 40 µL of a plasma sample was added with 160 µL of acetonitrile for precipitation, and after mixing, the mixture was centrifuged at 3500 × g for 5 to 20 min. • 2) The supernatant solution after treatment was taken for LC/MS/MS analysis of the concentration of the test compound. The LC/MS/MS analysis instrument was AB Sciex API 4000 Qtrap.
• Liquid phase condition: Shimadzu LC-20AD pump • Chromatographic column: Agilent ZORBAX XDB-C18 (50×2.1 mm, 3.5 µm) Mobile phase: Solution A was 0.1% formic acid aqueous solution, and Solution B was acetonitrile • Flow rate: 0.4 mL/min • Elution time: 0-4.0 min, the eluent was as follows: […]

Data set [4] can be described thus: Pharmacokinetic evaluation in mice, oral administration. The conditions noted are these: p.o. 5 mg/kg, plasma, single PK. It is filed as in vivo, Balb/c mice. An outline of the steps:
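Male Balb/c mice (n=3) dosed p.o. at 5 mg/kg after overnight fast, vehicle 10% PEG400/10% PG/80% glycine buffer (pH 10), 0.5 mg/mL. EDTA plasma, acetonitrile precipitation, compound quantified by LC/MS/MS; PK parameters by noncompartmental-style software calculation.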

T1 sequence (P43220 24-463): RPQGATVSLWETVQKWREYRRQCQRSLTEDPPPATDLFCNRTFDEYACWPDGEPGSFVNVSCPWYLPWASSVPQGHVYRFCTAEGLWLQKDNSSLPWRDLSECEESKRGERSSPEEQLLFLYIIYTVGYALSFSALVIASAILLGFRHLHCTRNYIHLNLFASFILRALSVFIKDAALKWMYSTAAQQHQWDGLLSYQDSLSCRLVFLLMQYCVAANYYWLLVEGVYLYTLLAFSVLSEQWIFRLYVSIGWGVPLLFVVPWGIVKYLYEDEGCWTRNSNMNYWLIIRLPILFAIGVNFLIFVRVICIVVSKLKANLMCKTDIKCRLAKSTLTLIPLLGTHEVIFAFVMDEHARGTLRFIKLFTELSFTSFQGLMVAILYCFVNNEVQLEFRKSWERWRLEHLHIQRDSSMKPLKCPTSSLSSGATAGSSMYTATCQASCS

Consider `[2H]C([2H])([2H])N1C(=O)C2(CC2)c2cc(-n3ccn(-c4c5c(nn4-c4cc(C)c(C#N)c(C)c4)CCN(C(=O)c4cc6cc([C@H]7CCOC(C)(C)C7)ccc6n4[C@@]4(c6noc(=O)[nH]6)C[C@@H]4C)[C@H]5C)c3=O)ccc21` [Example 162], for which the concentration for a half-maximal effect (EC50) (usually the concentration that produces a half-maximal response) on human GLP-1 receptor [1] is 0.1 nM; on human GLP-1 receptor [2], 0.25 nM.
Regarding `[2H]C([2H])([2H])n1nc2c3c(c(-n4ccn(-c5c6c(nn5-c5cc(C)c(F)c(C)c5)CCN(C(=O)c5cc7cc([C@H]8CCOC(C)(C)C8)ccc7n5[C@@]5(c7noc(=O)[nH]7)C[C@@H]5C#C)[C@H]6C)c4=O)ccc31)OCCC2` [Example 287, 3-((1S,2R)-1-(5-((S)-2,2-dimethyltetrahydro-2H-pyran-4-yl)-2-((S)-2-(4-fluoro-3,5-dimethylphenyl)-4-methyl-3-(3-(2-(methyl-d3)-2,7,8,9-tetrahydrooxaheptano[4,3,2-cd]indazol-5-yl)-2-carbonyl-2,3-dihydro-1H-imidazol-1-yl)-4,5,6,7-tetrahydro-2H-pyrazolo[4,3-c]pyridine-5-carbonyl)-1H-indol-1-yl)-2-ethynylcyclopropyl)-1,2,4-oxadiazol-5(4H)-one], in data set [3], the total exposure AUC(0-inf) – broadly, total exposure, with the tail of the curve extrapolated – came to 17200 ng·h/mL; the exposure AUC(0-t) (as a rule, the area under the concentration-time curve up to a stated or last time point) at 24 h was 17000 ng·h/mL; the half-life (commonly how long it takes for the measured level to halve) was 3.7 h; the highest concentration (Cmax) (usually the peak of the concentration-time curve) stood at 1880 ng/mL. Further, in data set [3], the MRT inf was 6.1 h and the Tmax (as a rule, the time at which the peak concentration occurs) amounted to 2.3 h. Also, in data set [4] (mouse, in vivo, po), the total exposure AUC(0-inf) amounted to 28000 ng·h/mL, the AUC(0-t) came to 27900 ng·h/mL, the maximum concentration (Cmax) stood at 5320 ng/mL and the Tmax amounted to 1 h. For the same compound, the MRT inf in data set [4] (mouse, in vivo, po, read-out: MRT 0-∞) stood at 4.2 h. This compound also had a tl/2 in data set [4] of 3.0 h. Also, the half-maximal effective concentration (EC50) at human GLP-1 receptor [2] turned out to be 0.9 nM.
In the case of `[2H]C([2H])([2H])n1nc2c3c(c(-n4ccn(-c5c6c(nn5-c5cc(C)c(F)c(C)c5)CCN(C(=O)c5cc7cc([C@H]8CCOC(C)(C)C8)ccc7n5[C@@]5(c7noc(=O)[nH]7)C[C@@H]5COC5CC5)[C@H]6C)c4=O)ccc31)OCCC2` [Example 285, 3-((1S,2S)-2-(cyclopropyloxymethyl)-1-(5-((S)-2,2-dimethyltetrahydro-2H-pyran-4-yl)-2-((S)-2-(4-fluoro-3,5-dimethylphenyl)-4-methyl-3-(3-(2-(methyl-d3)-2,7,8,9-tetrahydrooxahepta[4,3,2-cd]indazol-5-yl)-2-carbonyl-2,3-dibydro-1H-imidazol-1-yl)-4,5,6,7-tetrahydro-2H-pyrazolo[4,3-c]pyridine-5-carbonyl)-1H-indol-1-yl)cyclopropyl)-1,2,4-oxadiazol-5(4H)-one], in data set [3] (male, beagle), the area under the curve AUC(0-inf) turned out to be 19400 ng·h/mL, the half-life was 4.1 h, the Cmax was 3600 ng/mL and the MRT inf was 5.3 h. For the same compound, in data set [3] (male, beagle), the Tmax turned out to be 1.5 h. In data set [3] (male, beagle, read-out: AUC 0-t), the AUC(0-t) is 19200 ng·h/mL. Besides, the EC50 at human GLP-1 receptor [1] came to 0.09 nM. Besides, on human GLP-1 receptor [2], the concentration giving a half-maximal response (EC50) worked out at 0.71 nM.
